The values below come from patent US11753404B2, “Aminothiazole compounds as c-Kit inhibitors” (Ariad Pharmaceuticals, Inc., priority 2016, dated 2023).

Holding throughout (test): c-Kit assay: Ba/F3 KIT mutant cell viability (Cell Titer-Glo, 72 hours)
What all share (assay type): cell-based
What all share (conditions): viability after 72 hours

The target in test [1] is T1, BAF3 FL KIT EX11DEL/T670I (Homo sapiens, UniProt P10721, T670I, cells depend on it, form not given).
T1 construct: BAF3 FL KIT EX11DEL/T670I
T1 sequence (P10721 with tags, fused parts or gaps DEL557-558/T670I, form open): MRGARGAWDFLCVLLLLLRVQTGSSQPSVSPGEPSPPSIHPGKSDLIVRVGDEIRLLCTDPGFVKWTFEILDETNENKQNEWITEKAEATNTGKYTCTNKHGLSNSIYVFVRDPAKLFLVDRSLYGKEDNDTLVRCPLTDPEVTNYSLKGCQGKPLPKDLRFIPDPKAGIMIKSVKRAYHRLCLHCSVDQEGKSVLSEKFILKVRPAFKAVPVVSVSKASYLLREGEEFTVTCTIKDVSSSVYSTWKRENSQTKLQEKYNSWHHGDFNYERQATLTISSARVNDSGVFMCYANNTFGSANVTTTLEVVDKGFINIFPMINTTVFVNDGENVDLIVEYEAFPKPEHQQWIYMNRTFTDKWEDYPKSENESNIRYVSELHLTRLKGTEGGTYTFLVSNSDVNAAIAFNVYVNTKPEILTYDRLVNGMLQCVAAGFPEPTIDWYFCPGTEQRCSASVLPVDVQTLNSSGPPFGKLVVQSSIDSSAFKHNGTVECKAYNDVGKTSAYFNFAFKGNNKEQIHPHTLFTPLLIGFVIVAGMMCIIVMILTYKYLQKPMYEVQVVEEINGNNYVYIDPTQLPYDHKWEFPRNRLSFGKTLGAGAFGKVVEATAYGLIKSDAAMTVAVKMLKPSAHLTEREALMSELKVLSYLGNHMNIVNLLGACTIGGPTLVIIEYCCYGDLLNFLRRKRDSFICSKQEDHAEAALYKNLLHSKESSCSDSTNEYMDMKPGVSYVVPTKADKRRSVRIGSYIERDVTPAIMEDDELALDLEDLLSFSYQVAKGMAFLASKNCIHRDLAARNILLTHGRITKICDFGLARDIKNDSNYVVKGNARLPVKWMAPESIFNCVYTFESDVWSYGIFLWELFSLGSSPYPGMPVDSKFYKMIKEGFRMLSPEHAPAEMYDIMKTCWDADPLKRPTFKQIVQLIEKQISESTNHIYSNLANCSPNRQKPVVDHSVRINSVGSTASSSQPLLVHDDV
The procedure: (§1) Generation of DBa/F3 KIT Mutant Engineered Cell Lines
(§2) KIT cDNAs were synthesized by GenScript and cloned into the pLVX-IRES-Puro vector (Clontech). Viral particles were produced by transfecting pLVX-IRES-puro vectors containing KIT mutant genes into HEK293 cells (Invitrogen) using the Trans-Lentiviral ORF Packaging Kit (Thermo Scientific). 48 hours post-transfection, virus-containing supernatants were harvested and incubated for another 48-72 hours with parental Ba/F3 cells (DSMZ) in the presence of 10 ng/mL IL-3 (R&D Systems). Transduced Ba/F3 cells were then selected by IL-3 withdrawal and puromycin (0.5-1 μg/mL, Invitrogen).
(§3) Cell lines (e.g., EX11DEL, EX11DEL/D816H, EX11DEL/T670I, and EX11DEL/V654A) were plated into 384 well plates using RPMI 1640 supplemented with 10% FBS at densities that produced linear growth and incubated at 37° C. in 5% (v/v) CO2. Cells were treated with eight concentrations of compound over a 4-fold dilution (10 μM to 0.61 nM) and viability was assessed using Cell Titer-Glo assay (Promega) after 72 hours. Data were plotted as percent viability relative to vehicle-treated cells. Dose-responses curves were generated and used to calculate IC50 values.

The target in test [2] is T2, BAF3 FL KIT EX11DEL/D816H (Homo sapiens, UniProt P10721, D816H, cells depend on it, form not given).
T2 construct: BAF3 FL KIT EX11DEL/D816H
T2 sequence (P10721 with tags, fused parts or gaps DEL557-558/D816H, form open): as the sequence (P10721 with tags, fused parts or gaps DEL557-558/T670I, form open) above, with I668T, D814H counted along it
The procedure: as §1, §2, §3

Test [3] deals with T3, BAF3 FL KIT EX11DEL/V654A (Homo sapiens, UniProt P10721, V654A, cells depend on it, form not given).
T3 construct: BAF3 FL KIT EX11DEL/V654A
T3 sequence (P10721 with tags, fused parts or gaps DEL557-558/V654A, form open): as the sequence (P10721 with tags, fused parts or gaps DEL557-558/T670I, form open) above, with V652A, I668T counted along it
The procedure: as §1, §2, §3

In another test the target is T4, BAF3 FL KIT EX11DEL (Homo sapiens, UniProt P10721, cells depend on it, form not given).
T4 construct: BAF3 FL KIT EX11DEL
T4 sequence (P10721 with tags, fused parts or gaps DEL557-558): as the sequence (P10721 with tags, fused parts or gaps DEL557-558/T670I, form open) above, with I668T counted along it
The procedure: as §1, §2, §3

Broadly, the GI50 is the concentration that inhibits growth by half.

Consider `Cc1ccc(C(=O)Nc2cc(C(F)(F)F)ccn2)cc1C#Cc1cnc(NC(=O)NCCN)s1` [I-38, 3-((2-(3-(2-aminoethyl)ureido)thiazol-5-yl)ethynyl)-4-methyl-N-(4-(trifluoromethyl)pyridin-2-yl)benzamide], for which the GI50 in test [1] was 0.05 to 0.1 µM; in test [2], 0.05 to 0.1 µM; in test [3] it was 0.05 to 0.1 µM; on BAF3 FL KIT EX11DEL, < 0.01 µM.
Take `Cc1ccc(C(=O)Nc2cc(C(F)(F)F)ccn2)cc1C#Cc1cnc(NC(=O)N(C)C2CN(C)C2)s1` [I-39, 4-methyl-3-((2-(3-methyl-3-(1-methylazetidin-3-yl)ureido)thiazol-5-yl)ethynyl)-N-(4-(trifluoromethyl)pyridin-2-yl)benzamide]: the concentration for 50% growth inhibition (GI50) was in the range of 0.1 to 10 µM in test [1], 0.1 to 10 µM in test [2], 0.1 to 10 µM in test [3] and 0.01 to 0.05 µM on BAF3 FL KIT EX11DEL.
Regarding `Cc1ccc(C(=O)Nc2cc(C(F)(F)F)ccn2)cc1C#Cc1cnc(NC(=O)N2CCC(N(C)C)C2)s1` (centres unmarked) [I-40, 3-(dimethylamino)-N-(5-((2-methyl-5-((4-(trifluoromethyl)pyridin-2-yl)carbamoyl)phenyl)ethynyl)thiazol-2-yl)pyrrolidine-1-carboxamide], the GI50 is < 0.01 µM in test [1], 0.01 to 0.05 µM in test [2], 0.01 to 0.05 µM in test [3] and < 0.01 µM on BAF3 FL KIT EX11DEL.
For `Cc1ccc(C(=O)Nc2cc(C(F)(F)F)ccn2)cc1C#Cc1cnc(NC(=O)N2CCC(N3CCN(C)CC3)CC2)s1` [I-41, N-(5-((2-methyl-5-((4-(trifluoromethyl)pyridin-2-yl)carbamoyl)phenyl)ethynyl)thiazol-2-yl)-4-(4-methylpiperazin-1-yl)piperidine-1-carboxamide], the GI50 in test [1] was 0.01 to 0.05 µM; in test [2], 0.01 to 0.05 µM; in test [3], 0.01 to 0.05 µM; on BAF3 FL KIT EX11DEL, < 0.01 µM.
Turning to `CNC(=O)Nc1ncc(C#Cc2ccc(F)c(C(=O)Nc3cc(C(F)(F)F)ccn3)c2)s1` [I-42, 2-fluoro-5-((2-(3-methylureido)thiazol-5-yl)ethynyl)-N-(4-(trifluoromethyl)pyridin-2-yl)benzamide], the concentration for 50% growth inhibition (GI50) in test [1] is 0.1 to 10 µM; in test [2], 0.1 to 10 µM; in test [3] it was 0.1 to 10 µM; at BAF3 FL KIT EX11DEL, < 0.01 µM.
Consider `NC(=O)Nc1ncc(C#Cc2ccc(F)c(C(=O)Nc3cc(C(F)(F)F)ccn3)c2)s1` [I-43, 2-fluoro-N-(4-(trifluoromethyl)pyridin-2-yl)-5-((2-ureidothiazol-5-yl)ethynyl)benzamide], for which the GI50 in test [1] is 0.1 to 10 µM; in test [2], 0.1 to 10 µM; in test [3], 0.1 to 10 µM; on BAF3 FL KIT EX11DEL, < 0.01 µM.
On to `CNC(=O)Nc1ncc(C#Cc2cccc(C(=O)Nc3cc(C(F)(F)F)ccn3)c2)s1` [I-44, 3-((2-(3-methylureido)thiazol-5-yl)ethynyl)-N-(4-(trifluoromethyl)pyridin-2-yl)benzamide], for which the 50% growth inhibitory concentration (GI50) in test [1] was < 0.01 µM; in test [2], 0.01 to 0.05 µM; in test [3] it was 0.01 to 0.05 µM; on BAF3 FL KIT EX11DEL, < 0.01 µM.
With `CNC(=O)Nc1ncc(C#Cc2cc(C(=O)Nc3cc(C(F)(F)F)ccn3)ccc2F)s1` [I-45, 4-fluoro-3-((2-(3-methylureido)thiazol-5-yl)ethynyl)-N-(4-(trifluoromethyl)pyridin-2-yl)benzamide], the 50% growth inhibitory concentration (GI50) is < 0.01 µM in test [1], 0.01 to 0.05 µM in test [2], 0.01 to 0.05 µM in test [3] and < 0.01 µM on BAF3 FL KIT EX11DEL.
On to `COCCN(C)C(=O)Nc1ncc(C#Cc2cc(C(=O)Nc3ccc(CN4CCCC4)c(C(F)(F)F)c3)ccc2C)s1` [I-46, 3-((2-(3-(2-methoxyethyl)-3-methylureido)thiazol-5-yl)ethynyl)-4-methyl-N-(4-(pyrrolidin-1-ylmethyl)-3-(trifluoromethyl)phenyl)benzamide], for which the concentration for 50% growth inhibition (GI50) fell in the range of 0.01 to 0.05 µM in test [1], 0.01 to 0.05 µM in test [2], 0.05 to 0.1 µM in test [3] and 0.01 to 0.05 µM on BAF3 FL KIT EX11DEL.
`COCCN(C)C(=O)Nc1ncc(C#Cc2cc(C(=O)Nc3cccc(C(F)(F)F)c3OC)ccc2C)s1` [I-47, N-(2-methoxy-3-(trifluoromethyl)phenyl)-3-((2-(3-(2-methoxyethyl)-3-methylureido)thiazol-5-yl)ethynyl)-4-methylbenzamide]: the GI50 is 0.1 to 10 µM in test [1], 0.01 to 0.05 µM in test [2], 0.01 to 0.05 µM in test [3] and < 0.01 µM at BAF3 FL KIT EX11DEL.
Turning to `COCCN(C)C(=O)Nc1ncc(C#Cc2cc(C(=O)Nc3ccc(C#N)c(C(F)(F)F)c3)ccc2C)s1` [I-48, N-(4-cyano-3-(trifluoromethyl)phenyl)-3-((2-(3-(2-methoxyethyl)-3-methylureido)thiazol-5-yl)ethynyl)-4-methylbenzamide], the GI50 was 0.01 to 0.05 µM in test [1], 0.01 to 0.05 µM in test [2], 0.05 to 0.1 µM in test [3] and < 0.01 µM on BAF3 FL KIT EX11DEL.
For the molecule `Cc1ccc(C(=O)Nc2cc(C(F)(F)F)ccn2)cc1C#Cc1cnc(NC(=O)C2CC2)s1` [I-49, 3-((2-(cyclopropanecarboxamido)thiazol-5-yl)ethynyl)-4-methyl-N-(4-(trifluoromethyl)pyridin-2-yl)benzamide], the 50% growth inhibitory concentration (GI50) in test [1] is 0.01 to 0.05 µM; in test [2], 0.01 to 0.05 µM; in test [3], 0.01 to 0.05 µM; at BAF3 FL KIT EX11DEL, < 0.01 µM.
As for `Cc1ccc(C(=O)Nc2ccc(CN3CCN(C)CC3)c(C(F)(F)F)c2)cc1C#Cc1cnc(NC(=O)C2CC2)s1` [I-50, 3-((2-(cyclopropanecarboxamido)thiazol-5-yl)ethynyl)-4-methyl-N-(4-((4-methylpiperazin-1-yl)methyl)-3-(trifluoromethyl)phenyl)benzamide], the GI50 in test [1] was in the range of 0.01 to 0.05 µM; in test [2], 0.01 to 0.05 µM; in test [3], 0.1 to 10 µM; at BAF3 FL KIT EX11DEL, 0.01 to 0.05 µM.
As to `CC(=O)Nc1ncc(C#Cc2cc(C(=O)Nc3cc(C(F)(F)F)ccn3)ccc2C)s1` [I-51, 3-((2-acetamidothiazol-5-yl)ethynyl)-4-methyl-N-(4-(trifluoromethyl)pyridin-2-yl)benzamide], the GI50 was 0.01 to 0.05 µM in test [1], 0.01 to 0.05 µM in test [2], 0.01 to 0.05 µM in test [3] and < 0.01 µM at BAF3 FL KIT EX11DEL.
Take `Cc1ccc(C(=O)Nc2cc(C(F)(F)F)ccn2)cc1C#Cc1cnc(NC(=O)C(C)(C)C)s1` [I-52, 4-methyl-3-((2-pivalamidothiazol-5-yl)ethynyl)-N-(4-(trifluoromethyl)pyridin-2-yl)benzamide]: the concentration for 50% growth inhibition (GI50) in test [1] was in the range of 0.1 to 10 µM; in test [2] it was 0.1 to 10 µM; in test [3], 0.1 to 10 µM; on BAF3 FL KIT EX11DEL, 0.01 to 0.05 µM.
With `COCCN(C)C(=O)Nc1ncc(C#Cc2cc(NC(=O)c3cc(C(F)(F)F)ccn3)ccc2C)s1` [I-54, N-(3-((2-(3-(2-methoxyethyl)-3-methylureido)thiazol-5-yl)ethynyl)-4-methylphenyl)-4-(trifluoromethyl)picolinamide], the GI50 in test [1] is 0.01 to 0.05 µM; in test [2], 0.01 to 0.05 µM; in test [3], 0.01 to 0.05 µM; on BAF3 FL KIT EX11DEL it was < 0.01 µM.
`Cc1ccc(NC(=O)c2cccc(OC(F)(F)F)c2)cc1C#Cc1cnc(NC(=O)N(C)C)s1` [I-56, N-(3-((2-(3,3-dimethylureido)thiazol-5-yl)ethynyl)-4-methylphenyl)-3-(trifluoromethoxy)benzamide]: the GI50 in test [1] was 0.01 to 0.05 µM; in test [2] it was 0.01 to 0.05 µM; in test [3], 0.01 to 0.05 µM; on BAF3 FL KIT EX11DEL, < 0.01 µM.
Regarding `CNC(=O)Nc1ncc(C#Cc2cc(NC(=O)c3cc(C(F)(F)F)ccn3)ccc2C)s1` [I-57, N-(4-methyl-3-((2-(3-methylureido)thiazol-5-yl)ethynyl)phenyl)-4-(trifluoromethyl)picolinamide], the GI50 in test [1] was 0.01 to 0.05 µM; in test [2], < 0.01 µM; in test [3] it was < 0.01 µM; at BAF3 FL KIT EX11DEL it was < 0.01 µM.
Take `Cc1ccc(NC(=O)c2cc(C(F)(F)F)ccn2)cc1C#Cc1cnc(NC(=O)N(C)CCN(C)C)s1` [I-58, N-(3-((2-(3-(2-(dimethylamino)ethyl)-3-methylureido)thiazol-5-yl)ethynyl)-4-methylphenyl)-4-(trifluoromethyl)picolinamide]: the GI50 was 0.1 to 10 µM in test [1], 0.05 to 0.1 µM in test [2], 0.05 to 0.1 µM in test [3] and < 0.01 µM at BAF3 FL KIT EX11DEL.
For `CCN(CC)CCN(C)C(=O)Nc1ncc(C#Cc2cc(NC(=O)c3cc(C(F)(F)F)ccn3)ccc2C)s1` [I-59, N-(3-((2-(3-(2-(diethylamino)ethyl)-3-methylureido)thiazol-5-yl)ethynyl)-4-methylphenyl)-4-(trifluoromethyl)picolinamide], the GI50 in test [1] lay within 0.1 to 10 µM; in test [2], 0.05 to 0.1 µM; in test [3], 0.1 to 10 µM; on BAF3 FL KIT EX11DEL it was 0.01 to 0.05 µM.
